# Molecular target: PD-1/PD-L1 (Homo sapiens (Human), UniProt Q9NZQ7)
# Assay: PD-1/PD-L1 Binding Assay (Alphascreen)
# Details: numeric values
# Summary of the method: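 PD-1/PD-L1 binding detected by anti-6×His acceptor and streptavidin donor beads after 120 min in the dark at 25 °C. Beforehand, the two proteins were incubated 15 min at 25 °C with inhibitor at 0.015–300 nM (1% DMSO). IC50 comes from a log concentration–response curve.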
# Sequence of PD-1/PD-L1 (Q9NZQ7 19-238): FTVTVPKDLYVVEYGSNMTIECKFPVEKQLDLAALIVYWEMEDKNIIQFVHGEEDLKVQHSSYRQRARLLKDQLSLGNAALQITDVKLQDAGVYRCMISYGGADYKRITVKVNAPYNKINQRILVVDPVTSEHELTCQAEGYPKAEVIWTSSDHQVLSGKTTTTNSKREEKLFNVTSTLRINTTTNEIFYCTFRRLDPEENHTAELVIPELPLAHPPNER
row,IC50 [nM],SMILES
1,1.9,"Cc1c(-c2nc3cc(CN4CCC[C@H]4C(=O)O)c(OC(F)F)cc3o2)cccc1-c1cccc(-c2nc3cc(CN4CCC4)cc(C)c3o2)c1C [Example 94, ((2-(3′-(5-(azetidin-1-ylmethyl)-7-methylbenzo[d]oxazol-2-yl)-2,2′-dimethyl-[1,1′-biphenyl]-3-yl)-6-(difluoromethoxy)benzo[d]oxazol-5-yl)methyl)-L-proline]"
2,0.6,"CCNCc1cc2nc(-c3cccc(-c4cccc(-c5nc6cc(CN7CCC[C@H]7C(=O)O)c(OC(F)F)cc6o5)c4C)c3C)oc2cc1F [Example 96, ((6-(difluoromethoxy)-2-(3′-(5-((ethylamino)methyl)-6-fluorobenzo[d]oxazol-2-yl)-2,2′-dimethyl-[1,1′-biphenyl]-3-yl)benzo[d]oxazol-5-yl)methyl)-L-proline]"
3,0.82,"Cc1c(-c2nc3cc(CN[C@@H]4CCC[C@@H]4O)ccc3o2)cccc1-c1cccc(-c2nc3cc(CN4CCC[C@H]4C(=O)O)c(OC(F)F)cc3o2)c1C [Example 99, ((6-(difluoromethoxy)-2-(3′-(5-((((1R,2S)-2-hydroxycyclopentyl)amino)methyl)benzo[d]oxazol-2-yl)-2,2′-dimethyl-[1,1′-biphenyl]-3-yl)benzo[d]oxazol-5-yl)methyl)-L-proline]"
4,0.19,"Cc1c(-c2nc3cc(CN4CCC4(C)O)ccc3o2)cccc1-c1cccc(-c2nc3cc(CN4CCC[C@H]4C(=O)O)c(OC(F)F)cc3o2)c1C (stereo partly drawn) [Example 104, ((6-(difluoromethoxy)-2-(3′-(5-((2-hydroxy-2-methylazetidin-1-yl)methyl)benzo[d]oxazol-2-yl)-2,2′-dimethyl-[1,1′-biphenyl]-3-yl)benzo[d]oxazol-5-yl)methyl)-L-proline]"
5,1.6,"Cc1c(-c2nc3ccc(CN4CC(C)(C)C4)cc3o2)cccc1-c1cccc(-c2nc3cc(CN4CCC[C@H]4C(=O)O)c(OC(F)F)cc3o2)c1C [Example 109, ((6-(difluoromethoxy)-2-(3′-(6-((3,3-dimethylazetidin-1-yl)methyl)benzo[d]oxazol-2-yl)-2,2′-dimethyl-[1,1′-biphenyl]-3-yl)benzo[d]oxazol-5-yl)methyl)-L-proline]"

# Second part, the molecule before the results:
row,SMILES,IC50 [nM]
1,"Cc1c(-c2nc3cc(CN4CC[C@H](C(=O)O)C4)c(OC(F)F)cc3o2)cccc1-c1cccc(-c2nc3cc(CN4CC(C)(C)C4)c(OC(F)F)cc3o2)c1C [Example 86, (S)-1-((6-(difluoromethoxy)-2-(3′-(6-(difluoromethoxy)-5-((3,3-dimethylazetidin-1-yl)methyl)benzo[d]oxazol-2-yl)-2,2′-dimethyl-[1,1′-biphenyl]-3-yl)benzo[d]oxazol-5-yl)methyl)pyrrolidine-3-carboxylic acid]",11
2,"Cc1c(-c2nc3cc(CN4CCC[C@@H]4C(=O)O)c(OC(F)F)cc3o2)cccc1-c1cccc(-c2nc3cc(CN4CCC(C)C4)cc(C(F)(F)F)c3o2)c1C (stereo partly drawn) [Example 90, ((6-(difluoromethoxy)-2-(2,2′-dimethyl-3′-(5-((3-methylpyrrolidin-1-yl)methyl)-7-(trifluoromethyl)benzo [d]oxazol-2-yl)-[1,1′-biphenyl]-3-yl)benzo[d]oxazol-5-yl)methyl)-D-proline]",0.88

# Same assay, conditions: range symbols
row,IC50 [nM],SMILES
1,0.1 to 5,"CCNCc1cc2nc(-c3cccc(-c4cccc(-c5nc6cc(CN7CCC[C@H]7C(=O)O)c(OC(F)F)cc6o5)c4C)c3C)oc2cc1Cl [Example 97, ((2-(3′-(6-chloro-5-((ethylamino)methyl)benzo[d]oxazol-2-yl)-2,2′-dimethyl-[1,1′-biphenyl]-3-yl)-6-(difluoromethoxy)benzo[d]oxazol-5-yl)methyl)-L-proline]"
2,0.1 to 5,"Cc1c(-c2nc3cc(CN4CCC4CO)ccc3o2)cccc1-c1cccc(-c2nc3cc(CN4CCC[C@H]4C(=O)O)c(OC(F)F)cc3o2)c1C (stereo partly drawn) [Example 105, ((6-(difluoromethoxy)-2-(3′-(5-((2-(hydroxymethyl)azetidin-1-yl)methyl)benzo[d]oxazol-2-yl)-2,2′-dimethyl-[1,1′-biphenyl]-3-yl)benzo[d]oxazol-5-yl)methyl)-L-proline]"
3,0.1 to 5,"Cc1c(-c2nc3cc(CN4CCC45COC5)ccc3o2)cccc1-c1cccc(-c2nc3cc(CN4CCC[C@H]4C(=O)O)c(OC(F)F)cc3o2)c1C [Example 106, ((2-(3′-(5-((6-oxa-1-azaspiro[3.3]heptan-1-yl)methyl)benzo[d]oxazol-2-yl)-2,2′-dimethyl-[1,1′-biphenyl]-3-yl)-6-(difluoromethoxy)benzo[d]oxazol-5-yl)methyl)-L-proline]"
4,0.1 to 5,"Cc1c(-c2nc3cc(CN4CCC45CCC5)ccc3o2)cccc1-c1cccc(-c2nc3cc(CN4CCC[C@H]4C(=O)O)c(OC(F)F)cc3o2)c1C [Example 107, ((2-(3′-(5-((1-azaspiro[3.3]heptan-1-yl)methyl)benzo[d]oxazol-2-yl)-2,2′-dimethyl-[1,1′-biphenyl]-3-yl)-6-(difluoromethoxy)benzo[d]oxazol-5-yl)methyl)-L-proline]"

# The next lines start with the molecule.
row,SMILES,IC50 [nM]
1,"CC1(C)CN(Cc2cc3nc(-c4cccc(-c5cccc(-c6nc7cc(CN8CCC[C@H]8C(=O)O)c(OC(F)F)cc7o6)c5C#N)c4C#N)oc3cc2OC(F)F)C1 [Example 83, ((2-(2,2′-dicyano-3′-(6-(difluoromethoxy)-5-((3,3-dimethylazetidin-1-yl)methyl)benzo[d]oxazol-2-yl)-[1,1′-biphenyl]-3-yl)-6-(difluoromethoxy)benzo[d]oxazol-5-yl)methyl)-L-proline]",5 to 50
2,"Cc1c(-c2nc3cc(CN4CCC[C@H]4C(=O)O)c(OC(F)F)cc3o2)cccc1-c1cccc(-c2nc3cc(CN4CC(C)C(C)C4)cc(C(F)(F)F)c3o2)c1C (stereo partly drawn) [Example 84, ((6-(difluoromethoxy)-2-(3′-(5-((3,4-dimethylpyrrolidin-1-yl)methyl)-7-(trifluoromethyl)benzo[d]oxazol-2-yl)-2,2′-dimethyl-[1,1′-biphenyl]-3-yl)benzo[d]oxazol-5-yl)methyl)-L-proline]",0.1 to 5
3,"Cc1c(-c2nc3cc(CN4CCC[C@@H]4C(=O)O)c(OC(F)F)cc3o2)cccc1-c1cccc(-c2nc3cc(CN4CC(C)(C)C4)c(OC(F)F)cc3o2)c1C#N [Example 87, ((2-(2′-cyano-3′-(6-(difluoromethoxy)-5-((3,3-dimethylazetidin-1-yl)methyl)benzo[d]oxazol-2-yl)-2-methyl-[1,1′-biphenyl]-3-yl)-6-(difluoromethoxy)benzo[d]oxazol-5-yl)methyl)-D-proline]",0.1 to 5
4,"Cc1c(-c2nc3cc(CN4CC[C@@H](C(=O)O)C4)c(OC(F)F)cc3o2)cccc1-c1cccc(-c2nc3cc(CN4CCC(C)C4)cc(C(F)(F)F)c3o2)c1C (stereo partly drawn) [Example 91, (3R)-1-((6-(difluoromethoxy)-2-(2,2′-dimethyl-3′-(5-((3-methylpyrrolidin-1-yl)methyl)-7-(trifluoromethyl)benzo [d]oxazol-2-yl)-[1,1′-biphenyl]-3-yl)benzo[d]oxazol-5-yl)methyl)pyrrolidine-3-carboxylic acid]",0.1 to 5
5,"Cc1c(-c2nc3cc(CN4CC[C@H](C(=O)O)C4)c(OC(F)F)cc3o2)cccc1-c1cccc(-c2nc3cc(CN4CCC(C)C4)cc(C(F)(F)F)c3o2)c1C (stereo partly drawn) [Example 92, (3S)-1-((6-(difluoromethoxy)-2-(2,2′-dimethyl-3′-(5-((3-methylpyrrolidin-1-yl)methyl)-7-(trifluoromethyl)benzo [d]oxazol-2-yl)-[1,1′-biphenyl]-3-yl)benzo[d]oxazol-5-yl)methyl)pyrrolidine-3-carboxylic acid]",0.1 to 5
